Columns and labels:
[1] = test system: HuH-7 hepatoma cells; assay: In vitro cell proliferation assay (CellTiter-Glo, CTG), HuH-7; type: cell-based; conditions: HuH-7 cells
Procedure: (§1) In Vitro Cell Proliferation Assay of FGFR4 (CellTiter-Glo Luminescent Cell Viability Assay, CTG Assay)
(§2) Hep 3B hepatoma cells were purchased from Cell Resource Center of Peking Union College, and HuH-7 hepatoma cells were purchased from Shanghai Biological Technology Co., Ltd. enzyme research. The cells were prepared at a concentration of 3×10^4/mL, which was then added with 100 μL to each well of a 96-well transparent flat-bottom black-walled plate to make 3000 cells per well. Incubate overnight at 37° C. in 5% CO2 incubator. Dilute a compound and add it to the wells having the cells, then add cell culture medium to 200 μL per well. Put in CO2 incubator for incubation. After 96 hours, 100 μL of culture medium was removed from each well, 100 μL of CTG was added, and the 96-well plate was placed on a shaker for 10 minutes, and placed in the shade at room temperature for 45 minutes. Data was read out by SoftMax Pro i3X Microplate Reader of MD, analyzed by the software GraphPad Prism 5.0, and S-shaped dose-response curve was drawn, then the EC50 values were calculated.

[2] = test system: Hep 3B hepatoma cells; assay: In vitro cell proliferation assay (CellTiter-Glo, CTG), Hep 3B; type: cell-based, human; conditions: Hep 3B cells
Procedure: as §1, §2

[3] = target: FGFR4 (Homo sapiens, UniProt P22455); assay: In vitro biochemical kinase analysis of FGFR4 (HTRF KinEASE-TK); conditions: HTRF kinase assay
Procedure: In Vitro Biochemical Kinase Analysis of FGFR4
FGFR4 protein kinase detection kit was purchased from Cisbio (HTRF KinEASE-TK kit). Prepare 1× kinase reaction buffer. Transfer 10 nL of a diluted compound to each well of a reaction plate (784075, Greiner) with an Echo 550, and seal the plate with sealing film. The reaction plate was centrifuged at 1000 g for 1 minute. Prepare 2×FGFR4 using 1× kinase reaction buffer, add 5 μL of kinase to each well of the reaction plate, seal the plate, centrifuge at 1000 g for 30 seconds, and incubate it at room temperature for 10 minutes. Prepare a mixture of 2×TK-substrate-biotin and ATP using 1× kinase reaction buffer, add 5 μL of TK-substrate-biotin/ATP mixture to the reaction plate, seal the plate with sealing film, centrifuge at 1000 g for 30 seconds, and react at room temperature for 40 minutes. Prepare 2×Sa-XL 665 and TK-antibody-Cryptate mixture using HTRF detection buffer, add 10 μL Sa-XL 665 and TK-antibody-Cryptate mixture to each well, centrifuge at 1000 g for 30 seconds, and react at room temperature for 1 hour. Envision 2104 read fluorescence signals at 615 nm (Cryptate) and at 665 nm (XL665). IC50 of the compound was calculated using the GraphPad nonlinear fitting formula.

Sequence of FGFR4 (P22455 22-802): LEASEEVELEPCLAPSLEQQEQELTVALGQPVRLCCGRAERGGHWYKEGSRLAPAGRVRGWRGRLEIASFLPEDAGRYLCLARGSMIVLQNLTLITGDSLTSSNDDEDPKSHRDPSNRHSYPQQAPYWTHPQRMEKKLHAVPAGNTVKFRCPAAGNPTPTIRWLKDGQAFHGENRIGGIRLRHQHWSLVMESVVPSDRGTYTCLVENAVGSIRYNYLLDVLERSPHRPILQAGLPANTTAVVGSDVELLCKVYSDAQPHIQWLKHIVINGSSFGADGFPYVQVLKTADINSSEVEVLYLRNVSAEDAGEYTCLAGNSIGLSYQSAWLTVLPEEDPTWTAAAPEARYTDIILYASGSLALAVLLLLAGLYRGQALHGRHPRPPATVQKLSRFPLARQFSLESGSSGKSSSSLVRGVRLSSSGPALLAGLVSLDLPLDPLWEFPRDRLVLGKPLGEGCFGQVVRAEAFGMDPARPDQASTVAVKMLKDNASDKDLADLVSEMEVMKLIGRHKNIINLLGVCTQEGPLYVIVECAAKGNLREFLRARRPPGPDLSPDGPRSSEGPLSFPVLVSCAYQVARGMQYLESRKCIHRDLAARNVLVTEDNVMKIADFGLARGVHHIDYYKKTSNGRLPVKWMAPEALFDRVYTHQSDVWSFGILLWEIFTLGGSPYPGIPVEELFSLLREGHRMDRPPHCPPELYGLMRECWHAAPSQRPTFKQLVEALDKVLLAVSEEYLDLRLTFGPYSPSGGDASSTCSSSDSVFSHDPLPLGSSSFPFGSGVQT

Structure (SMILES) | EC50 ([1]; 96 hours) [nM] | EC50 ([2]; 96 hours) [nM] | IC50 [3] [nM] | EC50 ([1]; Homo sapiens, Huh-7, 96 h) [nM] | EC50 ([2]; Homo sapiens, Hep3B, 96 h) [nM]
COC1CCCC1Nc1cc(NC(=O)N2c3nc(C=O)c(CN4CCN(C)CC4=O)cc3C3(F)CC2C3)ncc1C#N (single isomer, unassigned) [Compound 12-P2, N-(5-cyano-4-(((cis)-2-methoxycyclopentyl)amino)pyridin-2-yl)-4-fluoro-7-formyl-64(4-methyl-2-oxopiperazin-1-yl)methyl)-3,4-dihydro-2,4-methylene-1,8-naphthyridine-1(2H)-carboxamide] | 95.2 | 39 | 10.9 |  | 
COCCNc1cc(NC(=O)N2c3nc(C=O)ccc3C3(O)CC2C3)ncc1C#N [Compound 2, N-(5-cyano-4-((2-methoxyethyl)amino)pyridin-2-yl)-7-formyl-4-hydroxy-3,4-dihydro-2,4-methylene-1,8-naphthyridine-1(2H)-carboxamide] |  |  | 2.2 | 52 | 8.1
COCCNc1cc(NC(=O)N2c3nc(C=O)ccc3C3(OC)CC2C3)ncc1C#N [Compound 3] |  |  | 1.6 | 42 | 13.4
CN1CCN(Cc2cc3c(nc2C=O)N(C(=O)Nc2ccc(C(F)(F)F)cn2)C2CC3(F)C2)C(=O)C1 [Compound 16, N-(5-(trifluoromethyl)pyridin-2-yl)-4-fluoro-7-formyl-6-((4-methyl-2-oxopiperazin-1-yl)methyl)-3,4-dihydro-2,4-methylene-1,8-naphthyridine-1(2H)-carboxamide] |  |  | 23.2 | > 1000 | 638
COCCOCCNc1cc(NC(=O)N2c3nc(C=O)ccc3C3(OC)CC2C3)ncc1C#N [Compound 22, N-(5-cyano-4-((2-(2-methoxyethoxy)ethyl)amino)pyridin-2-yl)-7-formyl-4-methoxy-3,4-dihydro-2,4-methylene-1,8-naphthyridine-1(2H)-carboxamide] |  |  | 4.7 | 125 | 125
COCCNc1cc(NC(=O)N2c3nc(C=O)ccc3C3(OCCN(C)C)CC2C3)ncc1C#N [Compound 29, N-(5-cyano-4-((2-methoxyethyl)amino)pyridin-2-yl)-4-(2-(dimethylamino)ethoxy)-7-formyl-3,4-dihydro-2,4-methylene-1,8-naphthyridine-1(2H)-carboxamide] |  |  | 1.1 | 0.2 | 1.2
COCCNc1cc(NC(=O)N2c3nc(C=O)ccc3C3(NC(=O)C4CCN(C)CC4)CC2C3)ncc1C#N [Compound 31] |  |  | 1.1 | 4.5 | 5.5
COCCNc1cc(NC(=O)N2c3nc(C=O)ccc3C3(NC(=O)c4cnn(C)c4)CC2C3)ncc1C#N [Compound 32, N-(5-cyano-4-((2-methoxyethyl)amino)pyridin-2-yl)-4-(1-methyl-1H-pyrazole-4-carboxamido)-7-formyl-3,4-dihydro-2,4-methylene-1,8-naphthyridine-1(2H)-carboxamide] |  |  | 0.5 | 0.7 | 1.7
COCCNc1cc(NC(=O)N2c3nc(C=O)ccc3C3(OCCOC)CC2C3)ncc1C#N [Compound 36, N-(5-cyano-4-((2-methoxyethyl)amino)pyridin-2-yl)-4-(2-methoxyethoxy)-7-formyl-3,4-dihydro-2,4-methylene-1,8-naphthyridine-1(2H)-carboxamide] |  |  | 2.5 | 11.8 | 8.5
CCS(=O)(=O)NC12CC(C1)N(C(=O)Nc1cc(NCCOC)c(C#N)cn1)c1nc(C=O)ccc12 [Compound 38, N-(5-cyano-4-((2-methoxyethyl)amino)pyridin-2-yl)-4-ethanesulfonamido-7-formyl-3,4-dihydro-2,4-methylene-1,8-naphthyridine-1(2H)-carboxamide] |  |  | 2.3 | 19.2 | 9.5
COCCNc1cc(NC(=O)N2c3nc(C=O)ccc3C3(OCCN4CCOCC4)CC2C3)ncc1C#N [Compound 39] |  |  | 1.6 | 10 | 7.8

Other lines, results leading:

EC50 ([1]; 96 hours) [nM] | EC50 ([2]; 96 hours) [nM] | IC50 [3] [nM] | EC50 ([1]; Homo sapiens, Huh-7, 96 h) [nM] | EC50 ([2]; Homo sapiens, Hep3B, 96 h) [nM] | Structure (SMILES)
 |  | 0.4 | 62 | 15.1 | COCCNc1cc(NC(=O)N2c3nc(C=O)ccc3C3(F)CC2C3)ncc1C#N [Compound 1, N-(5-cyano-4-((2-methoxyethyl)amino)pyridin-2-yl)-4-fluoro-7-formyl-3,4-dihydro-2,4-methylene-1,8-naphthyridine-1(2H)-carboxamide]
 |  | 1.8 | 49 | 27 | COCCNc1cc(NC(=O)N2c3nc(C=O)c(CN4CCN(C)CC4=O)cc3C3(O)CC2C3)ncc1C#N [Compound 5, N-(5-cyano-4-((2-methoxyethyl)amino)pyridin-2-yl)-7-formyl-4-hydroxy-6-((4-methyl-2-oxopiperazin-1-yl)methyl)-3,4-dihydro-2,4-methylene-1,8-naphthyridine-1(2H)-carboxamide]
 |  | 2.1 | 5.9 | 3.3 | COC[C@@H](C)Nc1cc(NC(=O)N2c3nc(C=O)c(CN4CCN(C)CC4=O)cc3C3(F)CC2C3)ncc1C#N [Compound 6, (R)—N-(5-cyano-4-((1-methoxyprop-2-yl)amino)pyridin-2-yl)-4-fluoro-7-formyl-6-((4-methyl-2-oxopiperazin-1-yl)methyl)-3,4-dihydro-2,4-methylene-1,8-naphthyridine-1(2H)-carboxamide]
 |  | 5.1 | > 1000 | 669 | COCCNc1cc(NC(=O)N2c3nc(C=O)c(CN4CCN(C)CC4)cc3C3(F)CC2C3)ncc1C#N [Compound 7]
 |  | 2.6 | 28 | 11.8 | COCCNc1cc(NC(=O)N2c3nc(C=O)c(CN(C)C(=O)CN(C)C)cc3C3(F)CC2C3)ncc1C#N [Compound 8]
 |  | 4.9 | 71 | 58 | COCCOc1cc(NC(=O)N2c3nc(C=O)c(CN4CCN(C)CC4=O)cc3C3(F)CC2C3)ncc1C#N [Compound 9]
 |  | 3.8 | 20 | 10 | CN1CCN(Cc2cc3c(nc2C=O)N(C(=O)Nc2cc(NC4CCOC4)c(C#N)cn2)C2CC3(F)C2)C(=O)C1 (stereo not drawn) [Compound 10, N-(5-cyano-4-((tetrahydrofuran-3-yl)amino)pyridin-2-yl)-4-fluoro-7-formyl-6-((4-methyl-2-oxopiperazin-1-yl)methyl)-3,4-dihydro-2,4-methylene-1,8-naphthyridine-1(2H)-carboxamide]
 |  | 6.9 | 74 | 12.6 | COCCNc1cc(NC(=O)N2c3nc(C=O)c(CN4CCOCC4=O)cc3C3(F)CC2C3)ncc1C#N [Compound 13]
 |  | 3.3 | 28 | 7.8 | COCCNc1cc(NC(=O)N2c3nc(C=O)c(CN4CCCCOC4=O)cc3C3(F)CC2C3)ncc1C#N [Compound 14]
 |  | 2.5 | 15.1 | 5.6 | COCCNc1cc(NC(=O)N2c3nc(C=O)c(CN4CCN(C)CC4=O)cc3C3CC2C3)ncc1C#N [Compound 18, N-(5-cyano-4-((2-methoxyethyl)amino)pyridin-2-yl)-7-formyl-6-((4-methyl-2-oxopiperazin-1-yl)methyl)-3,4-dihydro-2,4-methylene-1,8-naphthyridine-1(2H)-carboxamide]
 |  | 2.1 | 28.4 | 15.8 | CCc1cc2c(nc1C=O)N(C(=O)Nc1cc(NCCOC)c(C#N)cn1)C1CC2(F)C1 [Compound 21]
 |  | 0.6 | 1.7 | 1.4 | COC[C@@H](C)Nc1cc(NC(=O)N2c3nc(C=O)c(CN4CCN(C)CC4=O)cc3C3CC2C3)ncc1C#N [Compound 24]
 |  | 2.5 | 25.4 | 19.3 | COCCOc1cc(NC(=O)N2c3nc(C=O)c(CN4CCN(C)CC4=O)cc3C3CC2C3)ncc1C#N [Compound 25, N-(5-cyano-4-(methoxyethoxy)pyridin-2-yl)-7-formyl-6-((4-methyl-2-oxopiperazin-1-yl)methyl)-3,4-dihydro-2,4-methylene-1,8-naphthyridine-1(2H)-carboxamide]
 |  | 1.4 | 9.7 | 6.7 | COCCNc1cc(NC(=O)N2c3nc(C=O)c(CN4CCOCC4=O)cc3C3CC2C3)ncc1C#N [Compound 27, N-(5-cyano-4-((2-methoxyethyl)amino)pyridin-2-yl)-7-formyl-6-((3-oxomorpholinyl)methyl)-3,4-dihydro-2,4-methylene-1,8-naphthyridine-1(2H)-carboxamide]
 |  | 1.1 | 6.9 | 7.2 | COCCNc1cc(NC(=O)N2c3nc(C=O)c(CN4CCCCOC4=O)cc3C3CC2C3)ncc1C#N [Compound 28]

Source: patent publication US12344611B2, “Bridged cycloformylpyridine derivatives and uses thereof” (BroadenBio Co., Ltd., priority 2019, dated 2025)
